Reference: paper PMC8001353, “Tryptophanol-Derived Oxazolopyrrolidone Lactams as Potential Anticancer Agents against Gastric Adenocarcinoma” (Pharmaceuticals, 2021)

The compounds below were run on human gastric adenocarcinoma (AGS) cell line (assay: MTT reduction assay, cell viability / cytotoxicity in AGS cell line). Conditions: AGS cell line, cell viability, MTT, 48 h incubation, 100 µM, mean ± SD.
Assay type: cell-based
Protocol: The cytotoxicity was assessed in different cell lines with the endpoint MTT, using previously reported procedure. The following cells were obtained from the American Type Culture Collection: human embryonic kidney epithelial cell line (HEK 293T, ATCC HBT-22™), breast cancer cell line (MDA-MB-231, ATCC HTB-26™), osteosarcoma cell line (MG-63, ATCC CRL-1427™), gastric adenocarcinoma cell line (AGS, ATTC CRL-1739TM), prostate cancer cell line (DU-145, ATTC HTB-81™), and lung carcinoma cell line (A-549, ATCC CCL-185™). All cell lines were seeded at 2 × 10^4 cells/well with exception of A-549 cell line, which was seeded at 5 × 10^3 cells/well.

| Structure (SMILES) | % CV at 100 µM |
| --- | --- |
| O=C1CC[C@]2(c3ccccc3)OC[C@@H](Cc3c[nH]c4ccccc34)N12 [Compound 7a, (3R,7aR)-3-((1H-indol-3-yl)methyl)-7a-phenyltetrahydropyrrolo[2,1-b]oxazol-5(6H)-one] | 50 ± 5% |
| O=C1CC[C@]2(c3ccc(F)cc3)OC[C@@H](Cc3c[nH]c4ccccc34)N12 [Compound 7b, (3R,7aR)-3-((1H-indol-3-yl)methyl)-7a-(4-fluorophenyl)tetrahydropyrrolo[2,1-b]oxazol-5(6H)-one] | 50 ± 8% |
| O=C1CC[C@]2(c3ccc(Cl)cc3)OC[C@@H](Cc3c[nH]c4ccccc34)N12 [Compound 7c, (3R,7aR)-3-((1H-indol-3-yl)methyl)-7a-(4-chlorophenyl)tetrahydropyrrolo[2,1-b]oxazol-5(6H)-one] | 6 ± 1% |
| O=C1CC[C@]2(c3ccc(Br)cc3)OC[C@@H](Cc3c[nH]c4ccccc34)N12 [Compound 7d, (3R,7aR)-3-((1H-indol-3-yl)methyl)-7a-(4-bromophenyl)tetrahydropyrrolo[2,1-b]oxazol-5(6H)-one] | 14 ± 3% |
| Cc1ccc([C@]23CCC(=O)N2[C@H](Cc2c[nH]c4ccccc24)CO3)cc1 [Compound 7e, (3R,7aR)-3-((1H-indol-3-yl)methyl)-7a-(p-tolyl)tetrahydropyrrolo[2,1-b]oxazol-5(6H)-one] | 14 ± 2% |
| COc1ccc([C@]23CCC(=O)N2[C@H](Cc2c[nH]c4ccccc24)CO3)cc1 [Compound 7f, (3R,7aR)-3-((1H-indol-3-yl)methyl)-7a-(4-methoxyphenyl)tetrahydropyrrolo[2,1-b]oxazol-5(6H)-one] | 18 ± 2% |
| CS(=O)(=O)c1ccc([C@]23CCC(=O)N2[C@H](Cc2c[nH]c4ccccc24)CO3)cc1 [Compound 7g, (3R,7aR)-3-((1H-indol-3-yl)methyl)-7a-(4-(methylsulfonyl)phenyl)tetrahydropyrrolo[2,1-b]oxazol-5(6H)-one] | 94 ± 12% |
| O=C1CC[C@@]2(c3ccccc3)OC[C@H](Cc3c[nH]c4ccccc34)N12 [Compound 8a, (3S,7aS)-3-((1H-indol-3-yl)methyl)-7a-phenyltetrahydropyrrolo[2,1-b]oxazol-5(6H)-one] | 58 ± 4% |
| O=C1CC[C@@]2(c3ccc(F)cc3)OC[C@H](Cc3c[nH]c4ccccc34)N12 [Compound 8b, (3S,7aS)-3-((1H-indol-3-yl)methyl)-7a-(4-fluorophenyl)tetrahydropyrrolo[2,1-b]oxazol-5(6H)-one] | 22 ± 4% |
| O=C1CC[C@@]2(c3ccc(Cl)cc3)OC[C@H](Cc3c[nH]c4ccccc34)N12 [Compound 8c, (3S,7aS)-3-((1H-indol-3-yl)methyl)-7a-(4-chlorophenyl)tetrahydropyrrolo[2,1-b]oxazol-5(6H)-one] | 11 ± 1% |
| O=C1CC[C@@]2(c3ccc(Br)cc3)OC[C@H](Cc3c[nH]c4ccccc34)N12 [Compound 8d, (3S,7aS)-3-((1H-indol-3-yl)methyl)-7a-(4-bromophenyl)tetrahydropyrrolo[2,1-b]oxazol-5(6H)-one] | 25 ± 4% |
| Cc1ccc([C@@]23CCC(=O)N2[C@@H](Cc2c[nH]c4ccccc24)CO3)cc1 [Compound 8e, (3S,7aS)-3-((1H-indol-3-yl)methyl)-7a-(p-tolyl)tetrahydropyrrolo[2,1-b]oxazol-5(6H)-one] | 60 ± 3% |
| COc1ccc([C@@]23CCC(=O)N2[C@@H](Cc2c[nH]c4ccccc24)CO3)cc1 [Compound 8f, (3S,7aS)-3-((1H-indol-3-yl)methyl)-7a-(4-methoxyphenyl)tetrahydropyrrolo[2,1-b]oxazol-5(6H)-one] | 30 ± 4% |
| CS(=O)(=O)c1ccc([C@@]23CCC(=O)N2[C@@H](Cc2c[nH]c4ccccc24)CO3)cc1 [Compound 8g, (3S,7aS)-3-((1H-indol-3-yl)methyl)-7a-(4-(methylsulfonyl)phenyl)tetrahydropyrrolo[2,1-b]oxazol-5(6H)-one] | 91 ± 11% |

Same assay, conditions: Homo sapiens; AGS cell line, cell viability, MTT, 48 h incubation, 50 µM, mean ± SD; read-out: % CV at 50 µM

| Structure (SMILES) | viability at 50 µM |
| --- | --- |
| O=C1CC[C@]2(c3ccc(Cl)cc3)OC[C@@H](Cc3c[nH]c4ccccc34)N12 [Compound 7c, (3R,7aR)-3-((1H-indol-3-yl)methyl)-7a-(4-chlorophenyl)tetrahydropyrrolo[2,1-b]oxazol-5(6H)-one] | 11 ± 1% |
| Cc1ccc([C@]23CCC(=O)N2[C@H](Cc2c[nH]c4ccccc24)CO3)cc1Cl [Compound 7h, (3R,7aR)-3-((1H-indol-3-yl)methyl)-7a-(3-chloro-4-methylphenyl)tetrahydropyrrolo[2,1-b]oxazol-5(6H)-one] | 11 ± 2% |
| COc1ccc([C@]23CCC(=O)N2[C@H](Cc2c[nH]c4ccccc24)CO3)cc1F [Compound 7i, (3R,7aR)-3-((1H-indol-3-yl)methyl)-7a-(3-fluoro-4-methoxyphenyl)tetrahydropyrrolo[2,1-b]oxazol-5(6H)-one] | 84 ± 7% |
| CC1CC(=O)N2C(Cc3c[nH]c4ccccc34)COC12c1ccc(Cl)cc1 (stereo not drawn) [Compound 7j] | 8% |
| CCn1cc(C[C@@H]2CO[C@@]3(c4ccc(Cl)cc4)CCC(=O)N23)c2ccccc21 [Compound 7k, (3R,7aR)-7a-(4-chlorophenyl)-3-((1-ethyl-1H-indol-3-yl)methyl)tetrahydropyrrolo[2,1-b]oxazol-5(6H)-one] | 40 ± 5% |
| CC(=O)n1cc(C[C@@H]2CO[C@@]3(c4ccc(Cl)cc4)CCC(=O)N23)c2ccccc21 [Compound 7l, (3R,7aR)-3-((1-acetyl-1H-indol-3-yl)methyl)-7a-(4-chlorophenyl)tetrahydropyrrolo[2,1-b]oxazol-5(6H)-one] | 63 ± 13% |
| CC(C)(C)OC(=O)n1cc(C[C@@H]2CO[C@@]3(c4ccc(Cl)cc4)CCC(=O)N23)c2ccccc21 [Compound 7m, tert-butyl 3-(((3R,7aR)-7a-(4-chlorophenyl)-5-oxohexahydropyrrolo[2,1-b]oxazol-3-yl)methyl)-1H-indole-1-carboxylate] | 61 ± 9% |
| O=C1CC[C@]2(c3ccc(-c4ccc(Cl)cc4)cc3)OC[C@@H](Cc3c[nH]c4ccccc34)N12 [Compound 7n, (3R,7aR)-3-((1H-indol-3-yl)methyl)-7a-(4’-chloro-[1,1’-biphenyl]-4-yl)tetrahydropyrrolo[2,1-b]oxazol-5(6H)-one] | 65 ± 13% |
| O=C1CC[C@]2(c3ccc(-c4ccc(O)cc4)cc3)OC[C@@H](Cc3c[nH]c4ccccc34)N12 [Compound 7p, (3R,7aR)-3-((1H-indol-3-yl)methyl)-7a-(4’-hydroxy-[1,1’-biphenyl]-4-yl)tetrahydropyrrolo[2,1-b]oxazol-5(6H)-one] | 56 ± 1% |
| O=C1CC[C@]2(c3ccc(-c4ccc(CO)cc4)cc3)OC[C@@H](Cc3c[nH]c4ccccc34)N12 [Compound 7q, (3R,7aR)-3-((1H-indol-3-yl)methyl)-7a-(4’-(hydroxymethyl)-[1,1’-biphenyl]-4-yl)tetrahydropyrrolo[2,1-b]oxazol-5(6H)-one] | 55 ± 1% |
| O=C1CC[C@]2(c3ccc(-c4cccc(Cl)c4)cc3)OC[C@@H](Cc3c[nH]c4ccccc34)N12 [Compound 7r, (3R,7aR)-3-((1H-indol-3-yl)methyl)-7a-(3’-chloro-[1,1’-biphenyl]-4-yl)tetrahydropyrrolo[2,1-b]oxazol-5(6H)-one] | 17 ± 1% |
| O=C1CC[C@]2(c3ccc(-c4ccncc4)cc3)OC[C@@H](Cc3c[nH]c4ccccc34)N12 [Compound 7t, (3R,7aR)-3-((1H-indol-3-yl)methyl)-7a-(4-(pyridin-4-yl)phenyl)tetrahydropyrrolo[2,1-b]oxazol-5(6H)-one] | 75 ± 14% |
| O=C1CC[C@]2(c3ccc(-c4ccc5c(c4)OCCO5)cc3)OC[C@@H](Cc3c[nH]c4ccccc34)N12 [Compound 7u, (3R,7aR)-3-((1H-indol-3-yl)methyl)-7a-(4-(2,3-dihydrobenzo[b][1, 4]dioxin-6-yl)phenyl)tetrahydropyrrolo[2,1-b]oxazol-5(6H)-one] | 67 ± 6% |
